Results: paper PMC13242511, “Disrupting Notch signalling by a small molecule inhibiting dihydroorotate dehydrogenase activity” (Scientific Reports, 2026)
Where two headings read alike, the source gives them in different places.

Experiments:
γ-secretase complex = γ-secretase complex (Homo sapiens, UniProt P49768); assay: APP-C99 counter assay (GSI reporter assay); type: cell-based; set-up: AUC APP: scale not given here; details: for Hill-slope / curve fit information: 14p APP assay DR, bottom constrained to Emax of positive control LY-411575; for AUC APP: area under the 14-point dose-response curve, replicates averaged
Method: To this end, we used a previously established reporter gene-based GSI assay (APP-C99) (Fig. 3A), which measures γ-secretase activity through cleavage of amyloid precursor protein (APP), another protein processed by the γ-secretase complex[24]
Plasmids for APP and luciferase are described in[24] and the renilla plasmid described above generated for this project was used to normalize firefly values. 24 h post transfection cells were seeded on compound plates and cells were cultivated for 24 h before luciferase signals were read, as described.
Two-fold concentrations of compounds were diluted in 10 µl cell culture medium and brought to one-fold by seeding 10 µl containing 4000 cells of the respective cell type on each well of a 384-well plate, as described above. Analogous to the previous assays, all plates contained one DMSO and DAPT control column with the Notch reporter cell line (#A1-11) and a DMSO only and Notch inhibitor control plate was read before the measuring the screening plates. In addition, DAPT and DMSO were spotted in a dose response fashion, and a minimum of four replicates were read. Dose-responses of compounds were recorded in triplicates for each concentration reading out the dual luciferase reporters, as described above. Dose response assays were read together in one session. To measure compound effects, the different assays dose–response curves were fitted using the log(inhibitor) vs. response – Variable slope (model: Y = Bottom + (Top–Bottom)/(1 + 10^((LogIC50-X)*HillSlope)) equation.
A DMSO plate was read before measuring luciferase activity of compound spotted plates. APP firefly luciferase reporter assays were read with a signal integration time of 0.1 s, instead of 0.5 s used for the Notch reporter to reduce signal overlap between wells. […] The area-under-the-curve (AUC) was calculated on dose–response curves using Graphpad Prism.

Notch signalling = assay: Notch reporter assay (12xCSL firefly luciferase / renilla luciferase, HEK293T Notch1ΔE reporter cell line clone #A1-11); type: cell-based; set-up: AUC Notch: scale not given here; details: for Bottom (Emax): Emax indicated independent from assay constraints, in % (unit assumed); for AUC Notch: area under the 14-point dose-response curve, replicates averaged
Description: To identify novel Notch inhibitors in an unbiased manner, we generated a novel Notch reporter construct, which records the level of Notch signalling immediately downstream of receptor activation rather than further downstream in the signalling cascade, for example at the level of Hes and Hey proteins (Fig. 1B). […] The reporter construct carries piggy-bac sequences at both ends of the promoter-reporter cassette as well as cSH4 insulator elements to reduce transcriptional noise[21] and was transfected into HEK293T cells. To achieve a robust level of Notch receptor activity in the HEK293T reporter cell line and to confine the search for inhibitors to compounds affecting the receptor function and eliminating the need for ligand activation, a truncated ligand-independent version of the Notch1 receptor, mimicking an S2-cleaved Notch1 receptor (Notch1ΔE) and spontaneously activated by S3-cleavage[22] (Fig. 1C) was introduced into the cell line carrying the reporter construct (Fig. 1D). In addition, an HSV-TK-renilla luciferase plasmid was introduced into the cell line as an internal control for normalisation of the reporter expression (Fig. 1D).
A de novo Notch reporter construct, composed of six dimeric CSL binding sites linked to a basic b-globin promoter and followed by a firefly luciferase gene and a PEST degradation domain was synthesised (GeneArt). The construct was stably introduced into HEK293T cells, and zeocin (0.1 mg/ml) or Puromycin (0.05 mg/ml (ThermoFisher, cat #R25001, #A1113803) were used as selection markers. A clonal cell line (clone #A1) with robust renilla expression and enhanced firefly luciferase expression upon transient transfection of Notch1 ICD or Notch1ΔE constructs was selected, and a UB6 promoter-Notch1DE construct was stably introduced into this cell line using Blasticidin (0.1 mg/ml; ThermoFisher, cat #A1113903) as a selection marker. Stable cell lines were generated by serial dilution and only clonal colonies were selected for further evaluation. To measure luciferase reporter activity, cells were washed in cold PBS, detached, and collected in pre-warmed cell culture medium and centrifugated for five min at 200xg. The cell pellet was resuspended in medium, cells were counted, and 4,000 cells were seeded in each well of a white 384 well plate (Corning #3670) in 20 µl medium containing either DMSO or the GSI DAPT (N-[N-(3,5-Difluorophenacetyl)-L-alanyl]-S-phenylglycine t-butyl ester, Sigma-Aldrich, cat #565784-M) and incubated for 24 h. The efficacy of the reporter gene system was determined by monitoring the level of luciferase activation in the absence or presence of different amounts of DAPT in several cell clones. Luciferase activity was assessed using the dual-GLO luciferase detection kit from Promega (cat # E2920), following the manufacturer’s instructions. A minimum of two technical replicates were measured per clone using a SpectraMaxi3 plate reader (Molecular Devices). Reporter activity of different clones and in response to DAPT was assessed by normalising firefly (Notch activity) to renilla luciferase signals. Normalised signals of individual clones cultivated in DMSO were then compared to corresponding signals generated with DAPT-treated cells. The cell clone with the strongest signal to control ratio (DMSO to DAPT) was then selected for further exploration (clone #A1-11).
37,966 compounds were spotted by the compound center at SciLifeLab (https://www.scilifelab.se/) on a total of 120 plates (Greiner #781080) at a fixed concentration of 10 µM and the screening process spanned five consecutive sessions. The layout of each plate contained one column for DMSO and one for DAPT controls to determine the quality and reliability of the data. DAPT controls were spotted at 10 µM and DMSO was spotted in an equimolar volume. In addition, plates spotted with only DMSO were utilized to investigate the impact of plate effects before and after each session. […]

[1] = Homo sapiens, HEK-293T, 14p Notch assay DR, bottom constrained to Emax of positive control DAPT, read-out: approximated IC50
[2] = Homo sapiens, HEK-293T, 14p Notch assay DR, log10 value, bottom constrained to Emax of positive control DAPT, read-out: approximated LogIC50 (converted)
[3] = Homo sapiens, HEK-293T, 14-point dose-response, Fig. 4, read-out: approximated IC50, Notch reporter assay

| Structure (SMILES) | Hill-slope (γ-secretase complex) | AUC APP (γ-secretase complex) | IC50 (Notch signalling; [1]) [µM] | IC50 (Notch signalling; [2]) [µM] | curve fit information (γ-secretase complex) | Bottom (Emax) (Notch signalling; 14p Notch assay DR) | AUC Notch (Notch signalling) | further results |
| --- | --- | --- | --- | --- | --- | --- | --- | --- |
| Fc1ccc2[nH]c3c(c2c1)CCOC31CCN(Cc2ccccc2-c2ccccc2)CC1 [CBK039913] | 0.0284 | 726.2 | 1.2 | 1.26 | – | 44.4 | 588.0 | – |
| COc1ccc2[nH]c3c(c2c1)CCOC31CCN(Cc2ccccc2-c2ccccc2)CC1 [CBK040114] | 0.0153 | 713.8 | 1.3 | 1.26 | – | 45.9 | 576.0 | IC50 (Notch signalling; [3]): 1.4 µM |
| c1ccc(-c2ccccc2CN2CCC3(CC2)OCCc2c3[nH]c3ccccc23)cc1 [CBK040201] | 0.0232 | 739.3 | 2 | 2 | – | 50.0 | 592.0 | – |
| Cc1ccccc1CN1CCC2(CC1)OCCc1c2[nH]c2ccc(F)cc12 [CBK040334] | 0.00509 | 704.0 | 8.9 | 7.94 | IC50 indeterminate | ~ 28,93 | 607.0 | IC50 (Notch signalling; [3]): > 5 µM |
| Cc1ccccc1CN1CCC2(CC1)OCCc1c2[nH]c2ccc(Br)cc12 [CBK040353] | 0.0279 | 724.9 | 1.7 | 1.58 | – | 48.2 | 584.0 | IC50 (Notch signalling; [3]): 1.8 µM |
| Cc1ccccc1CN1CCC2(CC1)OCCc1c2n(C)c2ccccc12 [CBK040366] | 4.29e-13 | 658.0 | – | – | IC50 indeterminate | 104.0 | 632.0 | approximated IC50, Notch reporter assay (Notch signalling; 14-point dose-response, Fig. 4): Indeterminate |
| CC(=O)Nc1cccc(-c2cn3ccnc3c(Nc3ccccc3)n2)c1 [CBK066160] | -4.6e-12 | 549.2 | – | – | IC50 indeterminate | 87.0 | 362.0 | – |
| CC(=O)Nc1cccc(-c2cn3ccnc3c(Nc3ccc(N4CCOCC4)cc3)n2)c1 [CBK066362] | 0.3 | 828.0 | – | – | – | 95.3 | 529.0 | – |

The next lines start with results.

| Hill-slope (γ-secretase complex) | AUC APP (γ-secretase complex) | IC50 (Notch signalling; [1]) [µM] | IC50 (Notch signalling; [2]) [µM] | curve fit information (γ-secretase complex) | Structure (SMILES) | Bottom (Emax) (Notch signalling; 14p Notch assay DR) | AUC Notch (Notch signalling) | further results |
| --- | --- | --- | --- | --- | --- | --- | --- | --- |
| 0.0389 | 493.6 | 5.6 | 5.01 | – | COc1cc(Nc2nc(-c3cccc(NC(C)=O)c3)cn3ccnc23)cc(OC)c1OC [CBK038093] | 21.1 | 304.0 | remaining activity at 10 µM (γ-secretase complex; 24 h, 10µM, APP-C99 counter assay, read-out: 3p-DR in % of DMSO counter): 180%; remaining activity at 25 µM (γ-secretase complex; 24 h, 25µM, APP-C99 counter assay, read-out: 3p-DR in % of DMSO counter): 242%; remaining activity at […] (γ-secretase complex; 24 h, 1,25µM, APP-C99 counter assay, read-out: 3p-DR in % of DMSO counter): 132%; activity at 10 µM (Notch signalling; Homo sapiens, HEK-293T, 10 µM, primary screen, 24 h, unit from Fig. 2 legend, read-out: Primary screen at 10 µM (Notch reporter signal)): 46.2%; activity at 10 µM (Notch signalling; Homo sapiens, HEK-293T, 10 µM, three-dose confirmation screen, unit from Fig. 2 legend, read-out: Hit confirmation at 10 µM (Notch reporter signal)): 56.1%; activity at 10 µM (Notch signalling; Homo sapiens, HEK-293T, 10µM, 3-point DR confirmation screen, Notch reporter assay, read-out: inhibitor ratio in % of DMSO in 3 point DR): 56.1%; activity at 10 µM (Notch signalling; Homo sapiens, HEK-293T, 10 µM, sheet conf vs counter 10 µM, same values as 3-point DR confirmation screen, read-out: Confirmation screen): 56.1%; activity at 25 µM (Notch signalling; Homo sapiens, HEK-293T, 25µM, 3-point DR confirmation screen, Notch reporter assay, read-out: inhibitor ratio in % of DMSO in 3 point DR): 41.5%; activity at 25 µM (Notch signalling; Homo sapiens, HEK-293T, 25 µM, Notch reporter 3-point dose-confirmation assay, sheet "conf vs counter 25 µM", read-out: Confirmation screen): 41.5%; activity (Notch signalling; Homo sapiens, HEK-293T, 1,25µM, 3-point DR confirmation screen, Notch reporter assay, read-out: inhibitor ratio in % of DMSO in 3 point DR): 96.6% |
| 0.0798 | 545.0 | 23 | 25.1 | – | COc1cc(Nc2cncc(-c3cccc(N)c3)n2)cc(OC)c1OC [CBK065120] | 47.4 | 329.0 | – |
| 0.0468 | 573.8 | 27 | 25.1 | – | COc1cc(Nc2cncc(-c3cccc(NC(C)=O)c3)n2)cc(OC)c1OC [CBK065162] | 40.8 | 335.0 | – |
| -0.00462 | 501.6 | > 40 | > 40 | – | COc1cc(Nc2cncc(-c3cccc(N(C)C)c3)n2)cc(OC)c1OC [CBK065722] | 82.6 | 354.0 | – |
| 0.0659 | 523.0 | 27 | 25.1 | – | COc1ccccc1-c1cn2ccnc2c(Nc2cc(OC)c(OC)c(OC)c2)n1 [CBK066148] | 58.8 | 336.0 | – |
| -8.75e-10 | 496.5 | 36 | 39.8 | IC50 indeterminate | COc1cc(-c2cn3ccnc3c(Nc3ccccc3)n2)cc(OC)c1OC [CBK066200] | 65.6 | 329.0 | – |
| 0.0221 | 492.9 | – | – | – | COc1cc(Nc2nc(-c3ccc(Cl)cc3)cn3ccnc23)cc(OC)c1OC [CBK066238] | 82.4 | 336.0 | – |
| -3.32e-11 | 515.8 | – | – | IC50 indeterminate | COc1ccc(-c2cn3ccnc3c(Nc3ccccc3)n2)cc1 [CBK066257] | 91.1 | 403.0 | – |
| -16.9 | 485.9 | – | – | – | COc1cc(Nc2nc(-c3cccc(Cl)c3)cn3ccnc23)cc(OC)c1OC [CBK066271] | 87.7 | 348.0 | – |
| -3.83e-12 | 487.2 | 12 | 12.6 | IC50 indeterminate | COc1cc(Nc2nc(-c3cccc(O)c3)cn3ccnc23)cc(OC)c1OC [CBK066361] | 55.6 | 316.0 | – |
